From article PMC8286840, “Identifying SARS-CoV-2 antiviral compounds by screening for small molecule inhibitors of Nsp3 papain-like protease” (Biochemical Journal, 2021)
Where a name gives a salt, the structure may show the parent alone. Read-outs that look alike come from different tables or passages of the source. Where no end group is shown, it is not given here.

How the values were obtained:
[1] = molecular target: T1, SARS-CoV-2 PLpro (nsp3 1564–1878) (Severe acute respiratory syndrome coronavirus 2, UniProt P0DTD1); assay: biochemical; set-up: FRET-quenched peptide (Pro3) cleavage by PLpro, 10 min pre-incubation, slope over 20 min, normalised to no-compound control; conditions: high concentration screen, read-out: % of control remaining
[2] = molecular target: T1, SARS-CoV-2 PLpro (nsp3 1564–1878); assay: biochemical; set-up: FRET-quenched peptide (Pro3) cleavage by PLpro, 10 min pre-incubation, slope over 20 min, normalised to no-compound control; conditions: low concentration screen, read-out: % of control remaining

Molecule: CC(C)NC[C@H](O)COc1ccc(CCOCC2CC2)cc1 [Levobetaxolol (hydrochloride)]
- remaining activity at 3.75 µM ([1]; Well no.=6429): 90.9%
- remaining activity at 1.25 µM ([2]; Well no.=6429): 91.4%

Molecule: O=C(C[C@H]1NCCC[C@@H]1O)Cn1cnc2cc(Br)c(Cl)cc2c1=O (racemic) [Halofuginone]
- remaining activity at 3.75 µM ([1]; Well no.=7360): 95.2%
- remaining activity at 1.25 µM ([2]; Well no.=7360): 103%

Molecule: CC(C(=O)O)c1ccc2c(c1)CC(=O)c1ccccc1S2 (stereo not shown) [Zaltoprofen]
- remaining activity at 3.75 µM ([1]; Well no.=4879): 97.2%
- remaining activity at 1.25 µM ([2]; Well no.=4879): 96.8%

Molecule: CN(C)CCC(c1ccc(Br)cc1)c1ccccn1 (stereo not shown) [Brompheniramine (maleate)]
- remaining activity at 3.75 µM ([1]; Well no.=7377): 105%
- remaining activity at 1.25 µM ([2]; Well no.=7377): 102%

Molecule: O=C(Nc1cccc(Nc2cc(Nc3cccc(C(F)(F)F)c3)ncn2)c1)C1CC1 [EGFR Inhibitor]
- remaining activity at 3.75 µM ([1]; Well no.=2403): 103%
- remaining activity at 1.25 µM ([2]; Well no.=2403): 106%

Molecule: C[C@H](N[C@@H](CCc1ccccc1)C(=O)O)C(=O)N1CCC[C@H]1C(=O)O [Enalaprilat Dihydrate]
- remaining activity at 3.75 µM ([1]; Well no.=8094): 98.4%
- remaining activity at 1.25 µM ([2]; Well no.=8094): 96.7%

Molecule: NOCC(=O)O [O-(Carboxymethyl)hydroxylamine hemihydrochloride]
- remaining activity at 3.75 µM ([1]; Well no.=15): 102%
- remaining activity at 1.25 µM ([2]; Well no.=15): 103%

Molecule: CC[C@@]1([C@@H]2O[C@@H]([C@H]3O[C@@](O)(CO)[C@H](C)C[C@@H]3C)C[C@@H]2C)CC[C@H]([C@]2(C)CC[C@]3(C[C@H](O)[C@@H](C)[C@@H]([C@@H](C)[C@@H](OC)[C@H](C)C(=O)O)O3)O2)O1 [Monensin]
- remaining activity at 3.75 µM ([1]; Well no.=3413): 99.5%
- remaining activity at 1.25 µM ([2]; Well no.=3413): 94.8%

Molecule: CC[C@@H](CO)NC(=O)[C@@H]1C=C2c3cccc4c3c(cn4C)C[C@H]2N(C)C1 [Methysergide maleate]
- remaining activity at 3.75 µM ([1]; Well no.=2284): 90.3%
- remaining activity at 1.25 µM ([2]; Well no.=1087): 94.2%
- remaining activity at 1.25 µM ([2]; Well no.=2284): 94.8%

Molecule: COc1cccc(-c2c(C)n(Cc3c(F)cccc3C(F)(F)F)c(=O)n(C[C@H](NCCCC(=O)O)c3ccccc3)c2=O)c1F [Elagolix]
- remaining activity at 3.75 µM ([1]; Well no.=7420): 94.7%
- remaining activity at 1.25 µM ([2]; Well no.=7420): 97.8%

Molecule: CC1CNc2c(cccc2S(=O)(=O)N[C@@H](CCCNC(=N)N)C(=O)N2CC[C@@H](C)C[C@@H]2C(=O)O)C1 (stereo partly shown) [Argatroban (monohydrate)]
- remaining activity at 3.75 µM ([1]; Well no.=8454): 101%
- remaining activity at 1.25 µM ([2]; Well no.=8454): 103%

Molecule: CC(=O)C1=C(O)[C@@H]2[C@H]3c4c[nH]c5cccc(c45)C[C@H]3C(C)(C)N2C1=O [Cyclopiazonic acid]
- remaining activity at 3.75 µM ([1]; Well no.=3183): 104%
- remaining activity at 1.25 µM ([2]; Well no.=3183): 102%

Molecule: Cc1nc2cc(F)c(F)cc2n1-c1cncc(Nc2ccc(C(F)(F)F)cc2)n1 [PTC-028]
- remaining activity at 3.75 µM ([1]; Well no.=7024): 96.8%
- remaining activity at 1.25 µM ([2]; Well no.=7024): 106%

Molecule: O=C(NCC(=O)N1CC[C@H](N[C@H]2CC[C@@](O)(c3ccc(-c4ncccn4)cn3)CC2)C1)c1cccc(C(F)(F)F)c1 [PF-4136309]
- remaining activity at 3.75 µM ([1]; Well no.=7097): 98.1%
- remaining activity at 3.75 µM ([1]; Well no.=8085): 89%
- remaining activity at 1.25 µM ([2]; Well no.=7097): 98.3%
- remaining activity at 1.25 µM ([2]; Well no.=8085): 98%

Molecule: O=C(O)Cc1c[nH]c2ccc(O)cc12 [5-Hydroxyindole-3-acetic acid]
- remaining activity at 3.75 µM ([1]; Well no.=5974): 101%
- remaining activity at 3.75 µM ([1]; Well no.=7351): 102%
- remaining activity at 1.25 µM ([2]; Well no.=5974): 102%
- remaining activity at 1.25 µM ([2]; Well no.=7351): 103%

Molecule: N=C(N)N/N=C/c1c(Cl)cccc1Cl [Guanabenz (Acetate)]
- remaining activity at 3.75 µM ([1]; Well no.=6652): 100%
- remaining activity at 1.25 µM ([2]; Well no.=6652): 94.5%

Molecule: C[C@H]1CNCCc2ccc(Cl)cc21 [Lorcaserin (Hydrochloride)]
- remaining activity at 3.75 µM ([1]; Well no.=6954): 93.7%
- remaining activity at 1.25 µM ([2]; Well no.=6954): 99.1%

Molecule: C/C(=N\NC(=S)N1CCC1)c1ccccn1 [NSC319726]
- remaining activity at 3.75 µM ([1]; Well no.=6736): 102%
- remaining activity at 1.25 µM ([2]; Well no.=6736): 102%

Molecule: Ac-LKKTETQ [TB500]
- remaining activity at 3.75 µM ([1]; Well no.=7646): 90.2%
- remaining activity at 1.25 µM ([2]; Well no.=7646): 92.9%

Molecule: c1cc(CN2CCCNCCNCCCNCC2)ccc1CN1CCCNCCNCCCNCC1 [Plerixafor]
- remaining activity at 3.75 µM ([1]; Well no.=8356): 92.1%
- remaining activity at 3.75 µM ([1]; Well no.=8751): 99.2%
- remaining activity at 1.25 µM ([2]; Well no.=6893): 101%
- remaining activity at 1.25 µM ([2]; Well no.=8356): 91.6%
- remaining activity at 1.25 µM ([2]; Well no.=8751): 98.3%

Molecule: CC1CCN=C(N)S1 (racemic)
- remaining activity at 3.75 µM ([1]; Well no.=12): 106%
- remaining activity at 1.25 µM ([2]; Well no.=12): 105%

Molecule: O=S(=O)(c1cccc2cnccc12)N1CCCNCC1 [HA 1077, Dihydrochloride Fasudil]
- remaining activity at 3.75 µM ([1]; Well no.=2646): 100%
- remaining activity at 1.25 µM ([2]; Well no.=2646): 94.1%

Molecule: N[C@@H]1C[C@H]1c1ccccc1 [Tranylcypromine hydrochloride]
- remaining activity at 3.75 µM ([1]; Well no.=1399): 105%
- remaining activity at 1.25 µM ([2]; Well no.=1399): 100%

Molecule: O=C1c2ccccc2-n2c1nc1ccccc1c2=O [Tryptanthrin]
- remaining activity at 3.75 µM ([1]; Well no.=3376): 100%
- remaining activity at 1.25 µM ([2]; Well no.=3376): 96.9%

Molecule: Clc1ccc(C(c2ccc(Cl)cc2)[n+]2ccn(CC(OCc3ccc(Cl)cc3Cl)c3ccc(Cl)cc3Cl)c2)cc1 (stereo not shown) [Calmidazolium chloride]
- remaining activity at 3.75 µM ([1]; Well no.=174): 94.5%
- remaining activity at 1.25 µM ([2]; Well no.=174): 101%

Molecule: NC(=NCCC[C@H](N)C(=O)O)NO [NG-Hydroxy-L-arginine acetate]
- remaining activity at 3.75 µM ([1]; Well no.=660): 96.5%
- remaining activity at 1.25 µM ([2]; Well no.=660): 96.5%

Molecule: CCCCCCCCCCC/C=C/CCCCCC(=O)O [7(E)-Nonadecenoic acid]
- remaining activity at 3.75 µM ([1]; Well no.=4366): 97.4%
- remaining activity at 1.25 µM ([2]; Well no.=4366): 105%

Molecule: NCCS [Cysteamine hydrochloride]
- remaining activity at 3.75 µM ([1]; Well no.=884): 103%
- remaining activity at 1.25 µM ([2]; Well no.=884): 105%

Molecule: COC(=O)c1c(-c2cc(OC)c(OC)c(OC)c2)c2ccnc(OCc3ncccn3)c2c(=O)n1Cc1ccnc(C)c1 [T-0156]
- remaining activity at 3.75 µM ([1]; Well no.=1230): 102%
- remaining activity at 1.25 µM ([2]; Well no.=1230): 102%

Molecule: COc1cccc(-c2cc(F)ccc2C2Cc3nc(N)nc(C)c3C(=O)N2)n1 (stereo not shown) [HSP990 (NVP-HSP990)]
- remaining activity at 3.75 µM ([1]; Well no.=8934): 100%
- remaining activity at 1.25 µM ([2]; Well no.=8934): 93.5%

Molecule: CC1=Nc2ccc(Cl)cc2S(=O)(=O)N1 [Diazoxide]
- remaining activity at 3.75 µM ([1]; Well no.=394): 101%
- remaining activity at 3.75 µM ([1]; Well no.=1804): 93.4%
- remaining activity at 1.25 µM ([2]; Well no.=394): 105%
- remaining activity at 1.25 µM ([2]; Well no.=1804): 92.9%

Molecule: Oc1ccc2c3c1O[C@H]1c4oc5ccccc5c4C[C@@]4(O)[C@@H](C2)N(CC2CC2)CC[C@]314 [Naltriben methanesulfonate hydrate]
- remaining activity at 3.75 µM ([1]; Well no.=1698): 95.9%
- remaining activity at 1.25 µM ([2]; Well no.=1698): 95.8%

Molecule: CCCCC[C@@H](/C=C/C=C\C/C=C\C/C=C\CCCC(=O)O)OO [15(S)-HPETE]
- remaining activity at 3.75 µM ([1]; Well no.=4331): 98.7%
- remaining activity at 1.25 µM ([2]; Well no.=4331): 99.3%
